From patent US12502385B2, “Analogs of deutetrabenazine, their preparation and use” (Auspex Pharmaceuticals, Inc., priority 2017, dated 2025) come the findings set out here.

Data set [1] in a line: 90-day GLP general rat toxicology study. The method, then: A 90-day GLP general rat toxicology study was conducted with Compound 1.
The test system of a further data set is mice. The conditions noted are these: mouse, in vivo. The method, then:
A 3-day GLP mouse micronucleus study was conducted with Compound 1. That study included a GLP Bacterial Reverse Mutation Assay of deutetrabenazine with Compound 1. That study also included an in vitro Chromosome Aberration Test in Cultured Human Peripheral Blood Lymphocytes. In the study, the highest level of 80 mg/kg/day of deutetrabenazine was not genotoxic in males and females. That dose level was predicted to provide 2.77 mg Compound 1/kg/day in mice, which approximates to a human equivalent dose of 0.23 mg/kg.

“And” between values parts separate entries of the source, which are not always exact repeats. Equal entries are not always repeated.

Consider `[2H]C([2H])([2H])Oc1cc2c(cc1OC([2H])([2H])[2H])[C@@H]1CC(=O)[C@H](CC(C)C)CN1CC2` (racemic) [Compound 1, (RS, SR)-1,3,4,6,7,11b-hexahydro-9,10-di(methoxy-d3)-3-(2-methylpropyl)-2H-benzo[a]quinolizin-2-one], for which the no observed adverse effect level (NOAEL) (in general, the highest tested level that showed no adverse finding) at 90 day in data set [1] (in vivo) was 0.346 mg/kg/day and ~0.056 mg/kg. In the data set with mice (both, 3 day), the “Compound 1 dose provided at the non-genotoxic deutetrabenazine level” value was found to be 2.77 mg/kg/day and the “human equivalent dose of Compound 1 at the non-genotoxic level” value is given as around 0.23 mg/kg.

Take `[2H]C([2H])([2H])Oc1cc2c(cc1OC([2H])([2H])[2H])C1CC(=O)C(CC(C)C)CN1CC2` (centres unmarked) [deutetrabenazine, d6-Tetrabenazine]: in data set [1] (rat), the NOAEL at 90 day came to 10 mg/kg/day. In addition, the genotoxicity result in the data set on mice (80 mg/kg/day) is “not genotoxic”.
